Experimental data taken from patent publication US20220388979A1, “QUINOLINE DERIVATIVES AS PROTEIN KINASE INHIBITORS” (B.C.I. PHARMA, priority 2019, published 2022).
Like-named read-outs stand apart in the source and are kept apart here.

Key:
M-NFS-60 cells = experiment: Cell proliferation in M-NFS-60 leukemia cell line (WST-1); assay type: cell-based; settings: for IC50: cell proliferation, 72 h, WST-1, read-out: M-NFS-60 IC 50
Method: M-NFS-60: Exponential growing M-NFS-60 cells (ATCC, CRL-1838) were seeded at […]per 200 μl of complete medium with beta-mercaptoethanol and M-CSF (62 ng/mL) or IL34 (500 ng/mL). Twenty μL of test compound dilution were added to each well and the plates were incubated for 72 h at 37° C., 5% CO2. Untreated cells and positive control (0.5% triton X-100, for the last 15 min) served as reference for maximum and minimum viability. At the end of incubation 100 μl of supernatant were removed and replaced by 10 μl of WST-1 solution (Cell Proliferation Reagent WST-1, Roche Applied Science). After 3 h incubation at 37° C., 5% CO2, optical densities were measured at 450 nm and 620 nm for the background on microplate reader (Envision 2105, Perkinelmer).
(§1) IC50 were measured and experiments were performed at least in duplicate.
(§2) Cell-based assays of compounds CC395-CC397, depicted above, against M-NFS-60 and HEK-CSF1R have been performed following the procedures described in example 29 and 30 and compared with their quinoline analogues 32, 44 and 108.

CSF1R [1] = biological target: T1, CSF1R (Homo sapiens, UniProt P07333); experiment: HEK-CSF1R-STAT5-Luc reporter assay, M-CSF stimulated; assay type: cell-based; parameters: host or cells: HEK293T (ATCC CRL-3216); settings: for IC50: 600 ng/ml M-CSF, 24 h, luciferase, read-out: HEK-CSF1R-STAT5 IC 50
Method: HEK-CSF1R-STAT5-Luc: Exponential growing HEK293T cells (ATCC® CRL-3216™), ectopically expressing human CSF1R receptor (Origene) and five copies of a STAT5 response element (STAT5 RE, promega) that drives transcription of the luciferase reporter were seeded at 5·10^3 per 20 μl of complete DMEM medium. The next day, 2.25 μL of test compound dilution were added to each well and stimulated with 600 ng/ml of M-CSF. The plates were incubated for 24 h at 37° C., 5% CO2. Unstimulated and stimulated cells served as reference for […]. At the end of incubation 25 μl of Steady-Glo® Luciferase Assay System (Promega) were added after 5 min of lysis, luminescence was measured on microplate reader (Envision 2105, Perkinelmer).
as §1, §2

PDGFRB = PDGFRB (Homo sapiens, UniProt P09619); experiment: Z'-Lyte biochemical kinase assay (SelectScreen), PDGFRB; settings: at 50 nM, in duplicate
Method: (§3) A biochemical assay was performed in order to measure the protein kinase inhibition. The kinase binding assays were performed against different kinases using the SelectScreen Biochemical Kinase Profiling Service® platform (Thermo Fisher Scientific). For all kinases, the Z′-Lyte® biochemical kinase assay technology was used. Inhibitions were measured at 50 nM in duplicate for each compound and are reported in percentage.

FLT3 = biological target: T2, FLT3 (Homo sapiens, UniProt P36888); experiment: Z'-Lyte biochemical kinase assay (SelectScreen), FLT3; settings: at 50 nM, in duplicate
T2 sequence (P36888 27-993): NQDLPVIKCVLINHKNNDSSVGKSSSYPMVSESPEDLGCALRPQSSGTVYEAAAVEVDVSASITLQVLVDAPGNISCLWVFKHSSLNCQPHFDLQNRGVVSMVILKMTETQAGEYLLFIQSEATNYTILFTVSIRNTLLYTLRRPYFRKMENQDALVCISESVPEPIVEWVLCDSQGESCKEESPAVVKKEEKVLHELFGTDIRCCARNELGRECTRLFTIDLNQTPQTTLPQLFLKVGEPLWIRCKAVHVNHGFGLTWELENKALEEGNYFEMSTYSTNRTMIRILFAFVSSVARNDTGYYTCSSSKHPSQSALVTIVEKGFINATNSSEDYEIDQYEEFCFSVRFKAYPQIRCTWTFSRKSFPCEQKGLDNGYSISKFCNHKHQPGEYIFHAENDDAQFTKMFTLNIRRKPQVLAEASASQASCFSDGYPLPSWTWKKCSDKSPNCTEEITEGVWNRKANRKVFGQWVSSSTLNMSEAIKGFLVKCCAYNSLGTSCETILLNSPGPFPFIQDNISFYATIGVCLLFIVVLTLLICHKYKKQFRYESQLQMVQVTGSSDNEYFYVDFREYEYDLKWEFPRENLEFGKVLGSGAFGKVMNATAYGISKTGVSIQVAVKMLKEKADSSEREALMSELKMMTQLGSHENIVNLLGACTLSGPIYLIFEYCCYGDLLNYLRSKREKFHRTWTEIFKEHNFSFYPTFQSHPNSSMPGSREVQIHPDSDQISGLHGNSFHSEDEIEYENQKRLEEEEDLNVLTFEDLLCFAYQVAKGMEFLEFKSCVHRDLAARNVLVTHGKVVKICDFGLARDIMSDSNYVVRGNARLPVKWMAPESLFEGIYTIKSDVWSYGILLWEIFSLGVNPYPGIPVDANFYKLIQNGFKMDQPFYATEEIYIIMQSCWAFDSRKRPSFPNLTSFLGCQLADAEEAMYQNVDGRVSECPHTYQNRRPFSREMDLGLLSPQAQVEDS
Method: as §3

PDGFRA = PDGFRA (Homo sapiens, UniProt P16234); experiment: Z'-Lyte biochemical kinase assay (SelectScreen), PDGFRA; settings: at 50 nM, in duplicate
Method: as §3

Kit = Kit (Homo sapiens, UniProt P10721); experiment: Z'-Lyte biochemical kinase assay (SelectScreen), Kit; settings: at 50 nM, in duplicate
Method: as §3

CSF1R [2] = biological target: T1, CSF1R; experiment: Z'-Lyte biochemical kinase assay (SelectScreen), CSF1R; settings: at 50 nM, in duplicate
Method: as §3

[3] = 32 vs CC395, 44 vs CC396, 108 vs CC397

T1 sequence (P07333 20-972): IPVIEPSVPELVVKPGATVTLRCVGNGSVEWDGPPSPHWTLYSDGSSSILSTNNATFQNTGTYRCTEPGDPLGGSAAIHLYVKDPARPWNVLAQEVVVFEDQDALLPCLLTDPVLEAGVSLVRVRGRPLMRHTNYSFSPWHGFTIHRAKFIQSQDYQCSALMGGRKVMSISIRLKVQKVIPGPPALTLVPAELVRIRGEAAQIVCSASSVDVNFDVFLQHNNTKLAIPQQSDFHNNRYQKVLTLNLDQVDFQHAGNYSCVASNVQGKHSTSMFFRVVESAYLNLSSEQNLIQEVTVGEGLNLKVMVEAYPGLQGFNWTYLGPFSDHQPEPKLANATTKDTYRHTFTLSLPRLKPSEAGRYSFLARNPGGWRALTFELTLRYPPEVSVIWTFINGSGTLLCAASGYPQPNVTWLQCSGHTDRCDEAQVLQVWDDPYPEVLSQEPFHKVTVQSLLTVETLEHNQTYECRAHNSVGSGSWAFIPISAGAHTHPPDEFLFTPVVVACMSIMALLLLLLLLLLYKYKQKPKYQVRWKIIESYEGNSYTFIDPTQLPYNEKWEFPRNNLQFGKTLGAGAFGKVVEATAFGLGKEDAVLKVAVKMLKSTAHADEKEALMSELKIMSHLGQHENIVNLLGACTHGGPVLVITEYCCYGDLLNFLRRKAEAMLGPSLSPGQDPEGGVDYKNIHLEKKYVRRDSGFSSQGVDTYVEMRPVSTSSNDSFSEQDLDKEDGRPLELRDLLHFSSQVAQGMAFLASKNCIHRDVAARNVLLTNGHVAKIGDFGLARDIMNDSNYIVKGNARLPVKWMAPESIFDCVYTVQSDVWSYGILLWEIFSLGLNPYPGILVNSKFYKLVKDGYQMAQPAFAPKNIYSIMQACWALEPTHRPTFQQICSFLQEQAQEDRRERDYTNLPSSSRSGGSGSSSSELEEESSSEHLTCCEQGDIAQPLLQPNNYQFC
Sequence of PDGFRB (P09619 33-1106): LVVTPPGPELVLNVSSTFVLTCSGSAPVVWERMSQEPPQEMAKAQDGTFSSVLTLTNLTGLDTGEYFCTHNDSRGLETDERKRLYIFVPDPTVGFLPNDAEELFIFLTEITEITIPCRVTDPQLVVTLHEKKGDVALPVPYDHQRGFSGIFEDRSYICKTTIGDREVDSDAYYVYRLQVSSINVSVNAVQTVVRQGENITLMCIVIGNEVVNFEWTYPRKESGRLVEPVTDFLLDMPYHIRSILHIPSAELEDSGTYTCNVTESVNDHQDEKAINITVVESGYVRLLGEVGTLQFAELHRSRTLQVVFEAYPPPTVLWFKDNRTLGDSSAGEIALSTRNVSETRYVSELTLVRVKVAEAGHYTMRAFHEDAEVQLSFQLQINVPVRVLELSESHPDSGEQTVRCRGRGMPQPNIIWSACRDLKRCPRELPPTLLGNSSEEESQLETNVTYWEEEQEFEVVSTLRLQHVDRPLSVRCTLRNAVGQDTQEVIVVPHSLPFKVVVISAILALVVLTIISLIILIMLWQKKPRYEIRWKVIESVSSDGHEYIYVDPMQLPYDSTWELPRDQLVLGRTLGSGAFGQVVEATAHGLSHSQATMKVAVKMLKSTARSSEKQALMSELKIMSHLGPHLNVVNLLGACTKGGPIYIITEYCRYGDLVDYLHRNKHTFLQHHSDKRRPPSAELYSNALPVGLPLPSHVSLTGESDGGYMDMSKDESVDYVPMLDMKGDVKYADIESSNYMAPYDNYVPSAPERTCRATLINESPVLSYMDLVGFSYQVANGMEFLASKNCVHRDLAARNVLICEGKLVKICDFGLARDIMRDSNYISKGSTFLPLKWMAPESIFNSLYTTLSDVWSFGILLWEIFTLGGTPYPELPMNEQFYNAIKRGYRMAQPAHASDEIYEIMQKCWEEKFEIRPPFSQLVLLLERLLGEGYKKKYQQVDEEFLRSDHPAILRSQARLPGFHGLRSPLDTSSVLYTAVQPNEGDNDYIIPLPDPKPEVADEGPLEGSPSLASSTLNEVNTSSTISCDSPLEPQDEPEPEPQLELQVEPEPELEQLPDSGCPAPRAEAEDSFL
Sequence of PDGFRA (P16234 24-1089): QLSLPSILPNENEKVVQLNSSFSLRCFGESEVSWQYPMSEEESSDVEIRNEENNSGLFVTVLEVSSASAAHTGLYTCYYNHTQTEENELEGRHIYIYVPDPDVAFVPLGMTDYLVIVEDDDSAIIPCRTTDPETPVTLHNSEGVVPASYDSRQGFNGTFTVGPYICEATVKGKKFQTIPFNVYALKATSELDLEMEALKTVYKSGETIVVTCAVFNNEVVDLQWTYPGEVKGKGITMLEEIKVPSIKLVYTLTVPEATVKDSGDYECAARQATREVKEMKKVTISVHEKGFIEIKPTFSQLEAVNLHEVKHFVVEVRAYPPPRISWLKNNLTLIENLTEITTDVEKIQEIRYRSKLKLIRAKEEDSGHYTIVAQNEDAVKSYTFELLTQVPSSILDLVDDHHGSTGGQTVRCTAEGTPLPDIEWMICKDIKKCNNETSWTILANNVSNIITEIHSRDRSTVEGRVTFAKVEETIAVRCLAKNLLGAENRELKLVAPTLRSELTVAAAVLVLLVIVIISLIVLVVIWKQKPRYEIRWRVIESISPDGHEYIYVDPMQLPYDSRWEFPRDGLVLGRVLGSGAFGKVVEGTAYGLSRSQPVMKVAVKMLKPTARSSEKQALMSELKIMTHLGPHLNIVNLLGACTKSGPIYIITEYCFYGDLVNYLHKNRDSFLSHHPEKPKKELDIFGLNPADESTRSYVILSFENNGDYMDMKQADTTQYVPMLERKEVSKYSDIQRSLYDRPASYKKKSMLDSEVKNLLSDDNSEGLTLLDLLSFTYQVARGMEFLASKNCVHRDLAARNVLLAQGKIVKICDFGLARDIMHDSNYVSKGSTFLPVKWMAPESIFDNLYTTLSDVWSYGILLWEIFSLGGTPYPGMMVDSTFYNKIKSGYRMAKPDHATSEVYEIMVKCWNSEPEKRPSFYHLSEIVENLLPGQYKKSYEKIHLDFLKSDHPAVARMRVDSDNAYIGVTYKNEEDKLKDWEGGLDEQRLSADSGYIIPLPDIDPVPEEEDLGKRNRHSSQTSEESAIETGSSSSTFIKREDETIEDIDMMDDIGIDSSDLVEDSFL
Sequence of Kit (P10721 26-976): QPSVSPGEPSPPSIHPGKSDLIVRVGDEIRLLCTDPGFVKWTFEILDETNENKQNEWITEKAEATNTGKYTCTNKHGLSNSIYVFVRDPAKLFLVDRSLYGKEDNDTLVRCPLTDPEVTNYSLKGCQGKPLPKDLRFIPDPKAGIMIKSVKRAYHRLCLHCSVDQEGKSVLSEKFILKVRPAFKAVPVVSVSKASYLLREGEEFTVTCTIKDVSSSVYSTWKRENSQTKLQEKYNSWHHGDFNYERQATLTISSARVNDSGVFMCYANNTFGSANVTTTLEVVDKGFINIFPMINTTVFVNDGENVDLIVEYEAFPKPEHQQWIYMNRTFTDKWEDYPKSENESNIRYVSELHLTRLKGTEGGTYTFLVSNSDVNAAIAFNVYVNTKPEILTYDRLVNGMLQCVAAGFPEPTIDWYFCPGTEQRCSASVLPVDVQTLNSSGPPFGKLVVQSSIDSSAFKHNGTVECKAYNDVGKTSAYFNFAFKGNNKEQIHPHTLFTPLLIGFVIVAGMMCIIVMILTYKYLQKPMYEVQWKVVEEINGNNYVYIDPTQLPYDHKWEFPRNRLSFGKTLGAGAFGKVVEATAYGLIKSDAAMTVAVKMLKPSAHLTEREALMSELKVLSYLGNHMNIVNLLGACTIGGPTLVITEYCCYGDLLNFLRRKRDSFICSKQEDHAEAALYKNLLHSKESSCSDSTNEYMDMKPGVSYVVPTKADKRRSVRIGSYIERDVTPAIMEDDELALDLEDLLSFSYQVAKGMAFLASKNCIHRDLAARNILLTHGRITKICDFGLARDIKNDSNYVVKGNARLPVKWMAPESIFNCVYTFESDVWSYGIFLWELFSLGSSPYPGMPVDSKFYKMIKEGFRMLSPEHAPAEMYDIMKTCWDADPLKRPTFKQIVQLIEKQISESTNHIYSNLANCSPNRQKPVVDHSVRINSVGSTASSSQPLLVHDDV

Compound | IC50 (M-NFS-60 cells; Table 9) | IC50 (CSF1R [1]; Table 9) | inhibition at 0.05 µM (PDGFRB) | inhibition at 0.05 µM (FLT3) | inhibition at 0.05 µM (PDGFRA) | inhibition at 0.05 µM (Kit) | inhibition at 0.05 µM (CSF1R [2]) | further results
COc1cc2nccc(Oc3cccc(NC(=O)Cc4ccncc4)c3)c2cc1OC [CC399, reference compound] | – | – | – | – | – | – | – | IC50 (M-NFS-60 cells; Table 10): 5210 nM; IC50 (CSF1R [1]; Table 10): 3540 nM
COc1cc2nccc(Oc3cccc(CC(=O)NCc4ccncc4)c3)c2cc1OC [CC400, reference compound] | – | – | – | – | – | – | – | IC50 (M-NFS-60 cells; Table 10): 4220 nM; IC50 (CSF1R [1]; Table 10): 2270 nM
COc1cc2nccc(Oc3cccc(CC(=O)Nc4ccncc4)c3)c2cc1OC [CC401, reference compound] | – | – | – | – | – | – | – | IC50 (M-NFS-60 cells; Table 10): 7510 nM; IC50 (CSF1R [1]; Table 10): 3850 nM
COc1ccc2c(Oc3cccc(C(=O)NCc4ccncc4)c3C)ncnc2c1 [CC 395, 3-(7-methoxyquinazolin-4-yl)oxy-2-methyl-N-(4-pyridylmethyl)benzamide, reference compound] | 636 nM | 926 nM | – | – | – | – | – | –
COc1ccc2c(Oc3cccc(C(=O)NCc4ccncc4F)c3C)ncnc2c1 [CC 396, N-[(3-fluoro-4-pyridyl)methyl]-3-(7-methoxyquinazolin-4-yl)oxy-2-methyl-benzamide, reference compound] | 415 nM | 600 nM | – | – | – | – | – | –
Cc1c(Oc2ncnc3cc(Cl)ccc23)cccc1C(=O)NCc1ccncc1 [CC 397, 3-(7-chloroquinazolin-4-yl)oxy-2-methyl-N-(4-pyridylmethyl)benzamide, reference compound] | 1260 nM | 4150 nM | – | – | – | – | – | –
COc1ccc2c(Oc3cccc(C(=O)NCc4ccncc4)c3C)ccnc2c1 [compound 32, 3-[(7-methoxy-4-quinolyl)oxy]-2-methyl-N-(4-pyridylmethyl)benzamide] | 34 nM | 26 nM | – | – | – | – | – | –
COc1ccc2c(Oc3cccc(C(=O)NCc4ccncc4F)c3C)ccnc2c1 [compound 44] | 19 nM | 7 nM | – | – | – | – | – | fold decrease in IC50 against M-NFS-60 compared to quinazoline-based comparative compound (M-NFS-60 cells; [3]): 22 fold; fold decrease in IC50 against HEK-CSF1R-STAT5 compared to quinazoline-based comparative compound (CSF1R [1]; [3]): 86 fold
Cc1c(Oc2ccnc3cc(Cl)ccc23)cccc1C(=O)NCc1ccncc1 [compound 108, 3-[(7-chloro-4-quinolyl)oxy]-2-methyl-N-(4-pyridylmethyl)benzamide] | 58 nM | 29 nM | – | – | – | – | – | –
CN(C)c1ccc2c(Oc3cccc(C(=O)NCc4ccncc4)c3)ccnc2c1 [compound 140] | – | – | 19% | 8% | 11% | 3% | 83% | –
CNc1ccc2c(Oc3cc(C(=O)NCc4ccncc4)ccc3F)ccnc2c1 [compound 142] | – | – | 9% | 9% | 11% | 13% | 61% | –
CN(C)c1ccc2c(Oc3cc(C(=O)NCc4ccncc4)ccc3F)ccnc2c1 [compound 143] | – | – | 32% | 3% | 14% | 8% | 77% | –
CNc1ccc2c(Oc3cccc(C(=O)NCc4ccncc4)c3C)ccnc2c1 [compound 148] | – | – | 12% | 7% | 4% | 0% | 75% | –
Cc1c(Oc2ccnc3cc(N4CCC4)ccc23)cccc1C(=O)NCc1ccncc1 [compound 150] | – | – | 15% | 12% | 8% | 3% | 81% | –
CNc1ccc2c(Oc3cccc(C(=O)NCc4cccc(F)c4)c3C)ccnc2c1 [compound 151] | – | – | 21% | 0% | 9% | 4% | 79% | –
Cc1c(Oc2ccnc3cc(N(C)C)ccc23)cccc1C(=O)NCc1cccc(F)c1 [compound 152] | – | – | 25% | 13% | 10% | 3% | 77% | –
COc1cc2nccc(Oc3cccc(C(=O)NCc4ccncc4)c3)c2cc1OC [compound 398] | – | – | – | – | – | – | – | IC50 (M-NFS-60 cells; Table 10): 198 nM; fold decrease in IC50 against M-NFS-60 compared to CC399 (M-NFS-60 cells; vs CC399): 26 fold; fold decrease in IC50 against M-NFS-60 compared to CC400 (M-NFS-60 cells; vs CC400): 21 fold; fold decrease in IC50 against M-NFS-60 compared to CC401 (M-NFS-60 cells; vs CC401): 38 fold; IC50 (CSF1R [1]; Table 10): 58 nM; fold decrease in IC50 against HEK-CSF1R-STAT5 compared to CC399 (CSF1R [1]; vs CC399): 61 fold; fold decrease in IC50 against HEK-CSF1R-STAT5 compared to CC400 (CSF1R [1]; vs CC400): 39 fold; fold decrease in IC50 against HEK-CSF1R-STAT5 compared to CC401 (CSF1R [1]; vs CC401): 67 fold
